Reference: patent US20160046618A1, “Cyclopropyl Fused Thiazin-2-Amine Compounds as Beta-Secretase Inhibitors and Methods of Use” (AMGEN INC., priority 2014, published 2016)

Assays:
human recombinant BACE1 = human recombinant BACE1 (Homo sapiens (Human), UniProt P56817); assay: In vitro enzymatic BACE1 FRET assay; type: biochemical; settings: read-out: IC50 IP (μM) BACE1 enzyme
How it was run: (§1)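 Reactions were initiated by adding 50 nM of a peptide carrying fluorophore and quencher on opposite sides of the cleavage site and ran for one hour. Tris buffer then brought the pH to neutrality, ending the reaction, and fluorescence was measured (488 nm excitation, 590 nm emission).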

Recombinant Cat D = Recombinant Cat D (Homo sapiens (Human), UniProt P07339); assay: In vitro enzymatic Cathepsin D (Cat D) FRET assay; type: biochemical; settings: read-out: IC50 IP (μM) CatD
How it was run: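 Assay pH is 3.5 (0.05 M citrate, 5 mM CHAPS, 10% DMSO final) with Cat D from CHO cells. A 20 nM quenched peptide substrate is cleaved over one hour; the reaction is ended with Tris and read by fluorescence (ex 500, em 580 nm).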

[1] = tested on: Aβ40 in conditioned medium of cells stably expressing Amyloid Precursor Protein (APP); assay: In vitro BACE-1 cell-based assay (Aβ40 sandwich ELISA); settings: read-out: IC50 IP (μM) BACE1 cell
How it was run: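 Aβ40 in supernatants measured by time-resolved fluorescence sandwich ELISA, with pAb40 as capture and biotin-6E10 as detector antibody, each incubated at 4 °C.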

human recombinant BACE2 = human recombinant BACE2 (Homo sapiens (Human), UniProt Q9Y5Z0); assay: In vitro enzymatic BACE2 FRET assay; type: biochemical; settings: read-out: IC50 IP (μM) BACE2 enzyme
How it was run: as §1

Chain of human recombinant BACE2 (Q9Y5Z0 63-518): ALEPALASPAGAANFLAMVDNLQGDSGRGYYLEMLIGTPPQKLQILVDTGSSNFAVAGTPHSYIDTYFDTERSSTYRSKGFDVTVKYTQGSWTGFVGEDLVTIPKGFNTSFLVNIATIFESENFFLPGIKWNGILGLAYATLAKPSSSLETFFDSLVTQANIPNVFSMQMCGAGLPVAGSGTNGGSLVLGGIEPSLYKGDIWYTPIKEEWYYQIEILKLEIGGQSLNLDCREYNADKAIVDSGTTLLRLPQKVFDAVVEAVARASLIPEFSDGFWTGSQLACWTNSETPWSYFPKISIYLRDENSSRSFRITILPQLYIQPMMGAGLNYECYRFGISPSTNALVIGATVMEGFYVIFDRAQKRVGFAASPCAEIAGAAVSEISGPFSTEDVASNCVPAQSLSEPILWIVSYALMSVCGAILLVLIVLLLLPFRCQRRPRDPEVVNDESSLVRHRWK
Chain of Recombinant Cat D (P07339 65-412): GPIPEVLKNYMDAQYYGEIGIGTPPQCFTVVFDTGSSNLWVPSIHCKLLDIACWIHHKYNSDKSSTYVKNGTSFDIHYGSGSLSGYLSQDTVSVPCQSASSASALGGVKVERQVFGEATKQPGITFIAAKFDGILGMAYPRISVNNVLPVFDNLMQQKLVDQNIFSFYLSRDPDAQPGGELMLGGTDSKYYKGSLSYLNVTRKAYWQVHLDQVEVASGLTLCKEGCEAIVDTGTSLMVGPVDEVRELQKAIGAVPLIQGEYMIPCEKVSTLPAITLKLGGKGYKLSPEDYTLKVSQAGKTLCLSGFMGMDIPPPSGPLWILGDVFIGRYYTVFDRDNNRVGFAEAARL
Chain of human recombinant BACE1 (P56817 46-501): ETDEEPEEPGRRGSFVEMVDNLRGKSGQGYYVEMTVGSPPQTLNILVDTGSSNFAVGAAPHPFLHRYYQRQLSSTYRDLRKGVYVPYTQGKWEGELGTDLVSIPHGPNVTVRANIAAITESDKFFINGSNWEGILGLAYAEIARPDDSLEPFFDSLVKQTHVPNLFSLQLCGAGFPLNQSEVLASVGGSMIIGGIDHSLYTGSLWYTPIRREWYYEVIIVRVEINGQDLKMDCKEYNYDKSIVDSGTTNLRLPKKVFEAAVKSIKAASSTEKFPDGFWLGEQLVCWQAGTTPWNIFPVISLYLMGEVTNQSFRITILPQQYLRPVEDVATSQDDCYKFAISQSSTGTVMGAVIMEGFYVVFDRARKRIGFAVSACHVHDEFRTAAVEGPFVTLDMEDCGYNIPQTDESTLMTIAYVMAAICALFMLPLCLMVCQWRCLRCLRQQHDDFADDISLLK

SMILES	IC50 (human recombinant BACE1)	IC50 (Recombinant Cat D)	IC50 [1]	IC50 (human recombinant BACE2)
N#CCC[C@]12C[C@H]1[C@@](CF)(c1cc(NC(=O)c3ccc(Cl)cn3)ccc1F)N=C(N)S2 [Example 723, N-(3-((1S,5S,6S)-3-amino-1-(2-cyanoethyl)-5-(fluoromethyl)-2-thia-4-azabicyclo[4.1.0]hept-3-en-5-yl)-4-fluorophenyl)-5-chloro-2-pyridinecarboxamide]	0.00169 µM	282 µM	0.00431 µM	< 0.00203 µM
C#CCOc1cnc2c(Nc3ccc(F)c([C@@]4(CF)N=C(N)S[C@@]5(Cn6cc(C)nn6)C[C@H]54)c3)nccc2n1 [Example 724, N-(3-((1S,5S,6S)-3-amino-5-(fluoromethyl)-1-((4-methyl-1H-1,2,3-triazol-1-yl)methyl)-2-thia-4-azabicyclo[4.1.0]hept-3-en-5-yl)-4-fluorophenyl)-2-(2-propyn-1-yloxy)pyrido[3,4-b]pyrazin-5-amine]	0.00208 µM	1080 µM	0.00712 µM	0.0746 µM
Cc1cnnn1C[C@]12C[C@H]1[C@@](CF)(c1cc(NC(=O)c3ccc(Cl)cn3)ccc1F)N=C(N)S2 [Example 725, N-(3-((1S,5S,6S)-3-amino-5-(fluoromethyl)-1-((5-methyl-1H-1,2,3-triazol-1-yl)methyl)-2-thia-4-azabicyclo[4.1.0]hept-3-en-5-yl)-4-fluorophenyl)-5-chloro-2-pyridinecarboxamide]	0.00565 µM	1160 µM	0.0148 µM	0.00251 µM
COC[C@]12C[C@H]1[C@@](C)(c1cc(NC(=O)c3ccc(OCC(F)(F)C(F)F)cn3)cc(F)c1F)N=C(N)S2 [Example 732, N-(3-((1S,5S,6S)-3-amino-1-(methoxymethyl)-5-methyl-2-thia-4-azabicyclo[4.1.0]hept-3-en-5-yl)-4,5-difluorophenyl)-5-(2,2,3,3-tetrafluoropropoxy)-2-pyridinecarboxamide]	0.00339 µM	600 µM	0.034 µM	0.737 µM
COC[C@]12C[C@H]1[C@@](C)(c1cc(NC(=O)c3cnc(OCC(F)(F)C(F)F)cn3)cc(F)c1F)N=C(N)S2 [Example 734, N-(3-((1S,5S,6S)-3-amino-1-(methoxymethyl)-5-methyl-2-thia-4-azabicyclo[4.1.0]hept-3-en-5-yl)-4,5-difluorophenyl)-5-(2,2,3,3-tetrafluoropropoxy)-2-pyrazinecarboxamide]	0.00173 µM	2110 µM	0.017 µM	0.188 µM
COC[C@]12C[C@H]1[C@@](C)(c1cc(NC(=O)c3cnc(OCC(C)(F)F)cn3)cc(F)c1F)N=C(N)S2 [Example 739, N-(3-((1S,5S,6S)-3-amino-1-(methoxymethyl)-5-methyl-2-thia-4-azabicyclo[4.1.0]hept-3-en-5-yl)-4,5-difluorophenyl)-5-(2,2-difluoropropoxy)-2-pyrazinecarboxamide]	0.00421 µM	1460 µM	0.0169 µM	0.158 µM
COC[C@]12C[C@H]1[C@@](C)(c1cc(NC(=O)c3cnc(OCCCF)cn3)cc(F)c1F)N=C(N)S2 [Example 740, N-(3-((1S,5S,6S)-3-amino-1-(methoxymethyl)-5-methyl-2-thia-4-azabicyclo[4.1.0]hept-3-en-5-yl)-4,5-difluorophenyl)-5-(3-fluoropropoxy)-2-pyrazinecarboxamide]	0.0055 µM	927 µM	0.0194 µM	0.209 µM
COC[C@]12C[C@H]1[C@@](C)(c1cc(Nc3nccc4cc(OCC#CC(F)(F)F)cnc34)cc(F)c1F)N=C(N)S2 [Example 741, N-(3-((1S,5S,6S)-3-amino-1-(methoxymethyl)-5-methyl-2-thia-4-azabicyclo[4.1.0]hept-3-en-5-yl)-4,5-difluorophenyl)-3-((4,4,4-trifluoro-2-butyn-1-yl)oxy)-1,7-naphthyridin-8-amine]	0.0269 µM	94.4 µM	1.14 µM	0.658 µM
C[C@]1(c2cc(NC(=O)c3ccc(Cl)cn3)cc(F)c2F)N=C(N)S[C@@]2(S(C)(=O)=O)C[C@H]21 [Example 742, N-(3-((1R,5S,6S)-3-amino-5-methyl-1-(methylsulfonyl)-2-thia-4-azabicyclo[4.1.0]hept-3-en-5-yl)-4,5-difluorophenyl)-5-chloro-2-pyridinecarboxamide]	0.000719 µM	846 µM	0.0149 µM	< 0.00203 µM
C#CCOc1ccc(C(=O)Nc2cc(F)c(F)c([C@@]3(C)N=C(N)S[C@@]4(S(C)(=O)=O)C[C@H]43)c2)nc1 [Example 743, N-(3-((1R,5S,6S)-3-amino-5-methyl-1-(methylsulfonyl)-2-thia-4-azabicyclo[4.1.0]hept-3-en-5-yl)-4,5-difluorophenyl)-5-(2-propyn-1-yloxy)-2-pyridinecarboxamide]	0.000395 µM	> 133 µM	0.00971 µM	0.00543 µM
C#CCOc1cnc(C(=O)Nc2cc(F)c(F)c([C@@]3(C)N=C(N)S[C@@]4(S(C)(=O)=O)C[C@H]43)c2)cn1 [Example 744, N-(3-((1R,5S,6S)-3-amino-5-methyl-1-(methylsulfonyl)-2-thia-4-azabicyclo[4.1.0]hept-3-en-5-yl)-4,5-difluorophenyl)-5-(2-propyn-1-yloxy)-2-pyrazinecarboxamide]	0.00029 µM	46.5 µM	0.000872 µM	0.0183 µM

Continued, values first:

IC50 (human recombinant BACE1)	IC50 (Recombinant Cat D)	IC50 [1]	IC50 (human recombinant BACE2)	SMILES
0.179 µM	> 400 µM	0.406 µM	0.641 µM	COC[C@]12C[C@H]1[C@@](C)(c1cc(Nc3nccc4cc(OCc5cnco5)cnc34)cc(F)c1F)N=C(N)S2 [Example 726, N-(3-((1S,5S,6S)-3-amino-1-(methoxymethyl)-5-methyl-2-thia-4-azabicyclo[4.1.0]hept-3-en-5-yl)-4,5-difluorophenyl)-3-(1,3-oxazol-5-ylmethoxy)-1,7-naphthyridin-8-amine]
0.0282 µM	856 µM	0.0457 µM	0.385 µM	COC[C@]12C[C@H]1[C@@](C)(c1cc(Nc3nccc4cc(OCC#N)cnc34)cc(F)c1F)N=C(N)S2 [Example 729, ((8-((3-((1S,5S,6S)-3-amino-1-(methoxymethyl)-5-methyl-2-thia-4-azabicyclo[4.1.0]hept-3-en-5-yl)-4,5-difluorophenyl)amino)-1,7-naphthyridin-3-yl)oxy)acetonitrile]
0.0157 µM	1380 µM	0.0759 µM	1.03 µM	COC[C@]12C[C@H]1[C@@](C)(c1cc(Nc3nccc4cc(OCc5ncon5)cnc34)cc(F)c1F)N=C(N)S2 [Example 730, N-(3-((1S,5S,6S)-3-amino-1-(methoxymethyl)-5-methyl-2-thia-4-azabicyclo[4.1.0]hept-3-en-5-yl)-4,5-difluorophenyl)-3-(1,2,4-oxadiazol-3-ylmethoxy)-1,7-naphthyridin-8-amine]
0.0668 µM	1100 µM	1.3 µM	3.83 µM	COC[C@]12C[C@H]1[C@@](C)(c1cc(Nc3nccc4cc(OCC(F)(F)C(F)F)cnc34)cc(F)c1F)N=C(N)S2 [Example 731, N-(3-((1S,5S,6S)-3-amino-1-(methoxymethyl)-5-methyl-2-thia-4-azabicyclo[4.1.0]hept-3-en-5-yl)-4,5-difluorophenyl)-3-(2,2,3,3-tetrafluoropropoxy)-1,7-naphthyridin-8-amine]
0.00638 µM	1520 µM	0.014 µM	0.0642 µM	C#CCOc1cnc2c(Nc3cc(F)c(F)c([C@@]4(C)N=C(N)S[C@@]5(COC)C[C@H]54)c3)nccc2c1 [Example 733, N-(3-((1S,5S,6S)-3-amino-1-(methoxymethyl)-5-methyl-2-thia-4-azabicyclo[4.1.0]hept-3-en-5-yl)-4,5-difluorophenyl)-3-(2-propyn-1-yloxy)-1,7-naphthyridin-8-amine]
0.0412 µM	1650 µM	1.76 µM	0.978 µM	COC[C@]12C[C@H]1[C@@](C)(c1cc(Nc3nccc4cc(OCc5ncc(Cl)s5)cnc34)cc(F)c1F)N=C(N)S2 [Example 735, N-(3-((1S,5S,6S)-3-amino-1-(methoxymethyl)-5-methyl-2-thia-4-azabicyclo[4.1.0]hept-3-en-5-yl)-4,5-difluorophenyl)-3-((5-chloro-1,3-thiazol-2-yl)methoxy)-1,7-naphthyridin-8-amine]
0.0317 µM	151 µM	1.07 µM	0.765 µM	COC[C@]12C[C@H]1[C@@](C)(c1cc(Nc3nccc4cc(OCc5nc(Br)cs5)cnc34)cc(F)c1F)N=C(N)S2 [Example 736, N-(3-((1S,5S,6S)-3-amino-1-(methoxymethyl)-5-methyl-2-thia-4-azabicyclo[4.1.0]hept-3-en-5-yl)-4,5-difluorophenyl)-3-((4-bromo-1,3-thiazol-2-yl)methoxy)-1,7-naphthyridin-8-amine]
0.0325 µM	1500 µM	0.274 µM	0.693 µM	COC[C@]12C[C@H]1[C@@](C)(c1cc(Nc3nccc4cc(OCc5nccs5)cnc34)cc(F)c1F)N=C(N)S2 [Example 737, N-(3-((1S,5S,6S)-3-amino-1-(methoxymethyl)-5-methyl-2-thia-4-azabicyclo[4.1.0]hept-3-en-5-yl)-4,5-difluorophenyl)-3-(1,3-thiazol-2-ylmethoxy)-1,7-naphthyridin-8-amine]
